# Read-outs that look alike come from different tables or passages of the source.
# How the values were obtained:
# MDBK line = assay: MTT Cell Proliferation Assay, MDBK line; format: cell-based, bovine; settings: Bos taurus, MDBK
# Method in brief: (§1)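 Cells plated overnight, then exposed 3 days at 37 °C, 5% CO2 to compound in growth medium with 0.5% FBS and 0.5% DMSO final (0.5% DMSO as control).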
# [1] = tested on: epithelial carcinoma A431 cell line; assay: MTT Cell Proliferation Assay, A431 cell line; format: cell-based; settings: for MTT (10 Point follow-up) ratio / MTT-72 h A431/MDBK (ratio): value in brackets; for MTT (10 Point follow-up) ratio: numerically MDBK over A431; for MTT-72 h A431/MDBK (ratio): numerically MDBK value over A431 value; for MTT-72 h % Max: maximal effect printed after the ratio
# Method in brief: as §1
# EGFR = target: T1, EGFR (Homo sapiens, UniProt P00533); assay: EGFR in-cell Western (ICW) screening protocol; format: cell-based; parameters: unit not given here; settings: for ICW Screen: initial screen
# T1 construct: endogenous in cells; host or cells: A431 cells (ATCC CRL-1555)
# Method in brief: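 Serum-starved cells treated with compound 4 h at 37 °C, then stimulated with EGF (20 or 0 ng/ml solution added) in its continued presence. In-cell Western on fixed cells: phospho-EGFR (800 channel) normalised to total EGFR (700 channel), % inhibition calculated against EGF-stimulated and unstimulated no-compound wells.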
# [2] = 72 h, second value of A431/MDBK pair, read-out: MTT-72 h MDBK
# [3] = Homo sapiens, A-431, 72 h, 72 h, first value of A431/MDBK pair, read-out: MTT-72 h A431
# [4] = 10 point follow-up, second value of pair, read-out: MTT (10 Point follow-up) MDBK
# [5] = Homo sapiens, A-431, 10 point follow-up, first value of pair, read-out: MTT (10 Point follow-up) A431
# T1 sequence (P00533 25-1210): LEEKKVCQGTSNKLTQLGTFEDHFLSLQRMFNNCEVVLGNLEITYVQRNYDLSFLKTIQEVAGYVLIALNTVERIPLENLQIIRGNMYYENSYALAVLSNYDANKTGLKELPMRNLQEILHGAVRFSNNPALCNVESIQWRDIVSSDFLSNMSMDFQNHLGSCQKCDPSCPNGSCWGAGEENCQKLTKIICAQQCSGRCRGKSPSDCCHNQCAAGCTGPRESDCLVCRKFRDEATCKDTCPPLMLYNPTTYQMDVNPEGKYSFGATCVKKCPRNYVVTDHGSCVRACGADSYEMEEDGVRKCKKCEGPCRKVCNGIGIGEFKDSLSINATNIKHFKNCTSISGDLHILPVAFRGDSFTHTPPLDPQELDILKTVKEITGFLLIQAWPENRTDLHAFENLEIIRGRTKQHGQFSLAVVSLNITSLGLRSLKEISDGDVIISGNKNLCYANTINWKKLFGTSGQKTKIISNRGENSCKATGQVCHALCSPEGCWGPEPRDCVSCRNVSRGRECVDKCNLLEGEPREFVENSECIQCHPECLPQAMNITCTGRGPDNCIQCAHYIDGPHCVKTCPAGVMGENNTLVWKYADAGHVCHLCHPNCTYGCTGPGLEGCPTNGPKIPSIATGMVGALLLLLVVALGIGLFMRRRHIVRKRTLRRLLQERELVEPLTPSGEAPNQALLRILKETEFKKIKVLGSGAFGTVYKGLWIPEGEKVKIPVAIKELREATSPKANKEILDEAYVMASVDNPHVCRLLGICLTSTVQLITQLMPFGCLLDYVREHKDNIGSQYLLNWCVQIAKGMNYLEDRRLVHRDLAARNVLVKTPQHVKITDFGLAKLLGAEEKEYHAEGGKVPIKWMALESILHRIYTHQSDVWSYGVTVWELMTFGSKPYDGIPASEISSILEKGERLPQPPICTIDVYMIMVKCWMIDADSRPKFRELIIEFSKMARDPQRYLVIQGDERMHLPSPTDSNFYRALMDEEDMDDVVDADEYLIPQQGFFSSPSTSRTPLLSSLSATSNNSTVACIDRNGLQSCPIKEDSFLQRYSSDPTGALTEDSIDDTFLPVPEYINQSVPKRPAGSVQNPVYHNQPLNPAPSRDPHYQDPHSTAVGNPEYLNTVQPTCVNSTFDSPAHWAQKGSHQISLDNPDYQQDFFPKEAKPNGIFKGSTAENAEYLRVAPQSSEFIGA
"IC50 [1, 3]",ICW Screen (EGFR),ICW Re-Test (EGFR),"IC50 [1, 5]","IC50 ([1]; 72 h, first value of A431/MDBK pair, read-out: MTT-72 h A431)",SMILES,IC50 (MDBK line; [2]),MTT (10 Point follow-up) ratio [1],MTT-72 h A431/MDBK (ratio) ([1]; 72 h),IC50 (MDBK line; [4]),MTT-72 h % Max ([1]; 72 h)
2.79 µM,82.22,81.41,,,CCOc1ccc(C(Nc2cccnc2)c2cc(Cl)c3cccnc3c2O)cc1 (stereo not shown) [compound 10945],1.87 µM,0.76,0.67,,
5.15 µM,42.78,42.98,,,O=[N+]([O-])c1cccc(C(Nc2cccnc2)c2cc(Cl)c3cccnc3c2O)c1 (stereo not shown) [compound 10947],2.66 µM,,0.52,,
8.87 µM,44.24,30.99,,,Cc1cccc(NC(c2ccccn2)c2ccc3ccc(C)nc3c2O)n1 (stereo not shown) [compound 10948],11.9 µM,,1.34,,
5.63 µM,26.99,,,,CCCC(=O)NC(c1ccc(OC)c(OC)c1)c1cc(Cl)c2cccnc2c1O (stereo not shown) [compound 10949],5.79 µM,,1.03,,
0.56 µM,33.87,99.56,0.54 µM,,CC(C)C(=O)NC(c1cccs1)c1cc([N+](=O)[O-])c2cccnc2c1O (stereo not shown) [compound 10950],0.95 µM,1.63,1.70,0.878 µM,
5.58 µM,38.95,31.33,,,CCOc1cc(C(NC(C)=O)c2cc([N+](=O)[O-])c3cccnc3c2O)ccc1O (stereo not shown) [compound 10951],5.44 µM,,0.97,,
10.5 µM,49.39,43.94,,,Cc1cccc(NC(c2ccc(C)s2)c2ccc3ccc(C)nc3c2O)n1 (stereo not shown) [compound 10952],7.77 µM,,0.74,,
5.42 µM,30.86,41.04,,,CCOc1ccc(C(Nc2ccccn2)c2cc(Cl)c3cccnc3c2O)cc1 (stereo not shown) [compound 10953],5.56 µM,,1.03,,
1.72 µM,31.09,,1.62 µM,,Oc1c(C(Nc2ccccn2)c2ccccn2)cc(Cl)c2cccnc12 (stereo not shown) [compound 10954],2.29 µM,1.26,1.33,2.17 µM,
5.5 µM,37.33,53.58,,,Oc1c(C(Nc2ccccn2)c2cccnc2)cc(Cl)c2cccnc12 (stereo not shown) [compound 10955],5.36 µM,,0.97,,
17.5 µM,49.8,39.03,,,Oc1c(C(Nc2ccccn2)c2ccsc2)ccc2cccnc12 (stereo not shown) [compound 10957],14.1 µM,,0.80,,
14.8 µM,60.73,70.92,,,Cc1ccc2ccc(C(Nc3ccccn3)c3sccc3C)c(O)c2n1 (stereo not shown) [compound 10958],9.67 µM,,0.65,,
0.98 µM,42.18,87.34,0.96 µM,,CCCC(=O)NC(c1ccc(O)c(OCC)c1)c1cc([N+](=O)[O-])c2cccnc2c1O (stereo not shown) [compound 10959],2.43 µM,2.16,2.47,2.07 µM,
0.67 µM,32.5,91.3,0.648 µM,,CCC(=O)NC(c1cccs1)c1cc([N+](=O)[O-])c2cccnc2c1O (stereo not shown) [compound 10960],1.02 µM,1.49,1.52,0.967 µM,
32.4 µM,94.69,71.58,,,Cc1ccc2ccc(C(Nc3ccccn3)c3ccc(C)s3)c(O)c2n1 (stereo not shown) [compound 10961],43.5 µM,,1.34,,50%
3.83 µM,74.54,92.26,,,CCN(CC)c1ccc(C(Nc2ccccn2)c2ccc3cccnc3c2O)cc1 (stereo not shown) [compound 10965],3.83 µM,,1.00,,
46 µM,25.98,15.92,,,Cc1ccc2ccc(C(Nc3ccccn3)c3cccnc3)c(O)c2n1 (stereo not shown) [compound 10967],31 µM,,0.67,,
11.1 µM,27,,,,Cc1ccnc(NC(c2ccncc2)c2ccc3cccnc3c2O)c1 (stereo not shown) [compound 10968],7.84 µM,,0.71,,

"IC50 [1, 3]",ICW Screen (EGFR),ICW Re-Test (EGFR),"IC50 [1, 5]","IC50 ([1]; 72 h, first value of A431/MDBK pair, read-out: MTT-72 h A431)",SMILES,IC50 (MDBK line; [2]),MTT (10 Point follow-up) ratio [1],MTT-72 h A431/MDBK (ratio) ([1]; 72 h),IC50 (MDBK line; [4]),MTT-72 h % Max ([1]; 72 h)
,30.17,73.15,0.51 µM,,COc1ccc(C(NC(=O)c2cccnc2)c2cc(Cl)c3cccnc3c2O)cc1OC (stereo not shown) [compound 10969],,1.02,,0.52 µM,
4.19 µM,50.44,44.13,,,Cc1cccc(NC(c2ccncc2)c2ccc3cccnc3c2O)n1 (stereo not shown) [compound 10974],4.77 µM,,1.14,,
52.2 µM,53.5,34.86,,,Cc1cccc(NC(c2cccnc2)c2ccc3cccnc3c2O)n1 (stereo not shown) [compound 10975],35.6 µM,,0.68,,
25.1 µM,33.22,21.78,,,Cc1cccc(NC(c2cccc(C)n2)c2ccc3ccc(C)nc3c2O)n1 (stereo not shown) [compound 10976],19.7 µM,,0.78,,
,27.62,,,11.4 µM,CCOc1ccc(NC(c2ccccn2)c2ccc3cccnc3c2O)cc1 (stereo not shown) [compound 11000],11.2 µM,,0.99,,
4.68 µM,47.81,32.53,,,COc1ccc(C)cc1NC(c1ccc(F)cc1)c1ccc2cccnc2c1O (stereo not shown) [compound 11014],4.32 µM,,0.92,,
5.07 µM,64.21,57.97,,,COC(=O)c1ccc(NC(c2cccs2)c2ccc3cccnc3c2O)cc1 (stereo not shown) [compound 11015],3.87 µM,,0.76,,
11.6 µM,25.07,,,,CC(=O)Nc1ccc(NC(c2ccccn2)c2ccc3cccnc3c2O)cc1 (stereo not shown) [compound 11017],9.66 µM,,0.83,,
9.11 µM,25.31,21.62,,,Oc1c(C(Nc2ccccc2)c2ccccn2)ccc2cccnc12 (stereo not shown) [compound 11018],8.1 µM,,0.89,,
3.93 µM,53.72,71.32,,,Oc1c(C(Nc2cccc(Cl)c2)c2ccncc2)ccc2cccnc12 (stereo not shown) [compound 11042],3.72 µM,,1.06,,
6.35 µM,32.48,18.32,,,O=[N+]([O-])c1cccc(NC(c2ccco2)c2ccc3cccnc3c2O)c1 (stereo not shown) [compound 11056],5.94 µM,,0.94,,
7.99 µM,44.4,73.29,,,Oc1c(C(Nc2cccc(Cl)c2)c2cccnc2)ccc2cccnc12 (stereo not shown) [compound 11057],7.86 µM,,0.98,,
43.2 µM,44.06,36.82,,,Oc1c(C(Nc2ccc(OC(F)F)cc2)c2ccccn2)ccc2cccnc12 (stereo not shown) [compound 11072],21.1 µM,,0.49,,12%
7.39 µM,44.31,39.06,,,COc1ccccc1NC(c1cccnc1)c1ccc2cccnc2c1O (stereo not shown) [compound 11102],7.66 µM,,1.04,,
20.8 µM,50.55,45.86,,,COc1ccc(NC(c2ccccn2)c2ccc3cccnc3c2O)cc1 (stereo not shown) [compound 11103],36.4 µM,,1.75,,
5.46 µM,48.25,17.88,4.72 µM,,Oc1c(C(Nc2cccc(F)c2)c2ccccn2)ccc2cccnc12 (stereo not shown) [compound 11105],7.03 µM,1.38,1.29,6.5 µM,
8.25 µM,35.56,45.66,,,Oc1ccccc1NC(c1cccnc1)c1ccc2cccnc2c1O (stereo not shown) [compound 11151],6.23 µM,,0.76,,
9 µM,60.41,48.96,,,COc1ccc(NC(c2cccnc2)c2ccc3cccnc3c2O)cc1 (stereo not shown) [compound 11152],8.24 µM,,0.92,,
